The text below walks through data of US6039950A, “Pharmaceutical grade saw palmetto” (priority 1997, dated 2000).

The structures appear in SMILES notation. Where “and” joins values, the source holds several entries; their conditions need not be identical. Identical values can stand only once. Like-named read-outs stand apart in the source and are kept apart here.

Experiment [1] addresses T1, 5-lipoxygenase (Rattus norvegicus, UniProt P12527).
T1 sequence (P12527 1-673): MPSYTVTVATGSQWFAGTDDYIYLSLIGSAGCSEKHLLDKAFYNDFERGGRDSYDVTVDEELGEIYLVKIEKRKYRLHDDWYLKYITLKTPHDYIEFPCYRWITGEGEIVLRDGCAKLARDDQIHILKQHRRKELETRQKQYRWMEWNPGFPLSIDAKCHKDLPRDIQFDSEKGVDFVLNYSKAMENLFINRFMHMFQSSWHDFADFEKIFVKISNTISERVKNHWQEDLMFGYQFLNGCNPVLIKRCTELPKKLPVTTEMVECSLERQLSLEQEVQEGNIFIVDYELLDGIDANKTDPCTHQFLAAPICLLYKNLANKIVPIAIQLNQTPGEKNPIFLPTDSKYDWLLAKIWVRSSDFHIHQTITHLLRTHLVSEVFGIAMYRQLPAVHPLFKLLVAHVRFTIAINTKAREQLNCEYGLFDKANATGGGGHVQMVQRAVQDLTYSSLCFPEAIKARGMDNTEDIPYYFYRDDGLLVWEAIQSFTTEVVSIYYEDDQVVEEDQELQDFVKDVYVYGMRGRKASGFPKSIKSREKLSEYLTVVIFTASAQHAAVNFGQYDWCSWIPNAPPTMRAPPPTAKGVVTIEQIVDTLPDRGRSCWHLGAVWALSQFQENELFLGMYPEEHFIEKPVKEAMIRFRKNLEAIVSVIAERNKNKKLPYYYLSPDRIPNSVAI
Nature of the experiment: biochemical. Particulars: for 5-Lipo activity: screened at 3×10^-5 (30 μM).
Protocol: The procedure was as follows. 5-lipoxygenase assays were run using a crude enzyme preparation from rat basophilic leukemia cells (RBL-1). Test compounds were pre-incubated with the enzyme for 5 minutes at room temperature and the reaction was initiated by addition of substrate (arachidonic acid). Following an 8 minute incubation at room temperature, the reaction was terminated by addition of citric acid, and levels of 5-HETE were determined by 5-HETE radioimmunoassay (RIA).
Compounds and fractions were screened at an initial concentration of 3×10^-5.

In experiment [2] the target is T2, Cyclooxygenase-2 (Ovis aries, UniProt P79208).
T2 construct: Cyclooxygenase-2 (from sheep placenta); from tissue; host or cells: sheep placenta; assay by Panlabs
T2 sequence (P79208 17-603): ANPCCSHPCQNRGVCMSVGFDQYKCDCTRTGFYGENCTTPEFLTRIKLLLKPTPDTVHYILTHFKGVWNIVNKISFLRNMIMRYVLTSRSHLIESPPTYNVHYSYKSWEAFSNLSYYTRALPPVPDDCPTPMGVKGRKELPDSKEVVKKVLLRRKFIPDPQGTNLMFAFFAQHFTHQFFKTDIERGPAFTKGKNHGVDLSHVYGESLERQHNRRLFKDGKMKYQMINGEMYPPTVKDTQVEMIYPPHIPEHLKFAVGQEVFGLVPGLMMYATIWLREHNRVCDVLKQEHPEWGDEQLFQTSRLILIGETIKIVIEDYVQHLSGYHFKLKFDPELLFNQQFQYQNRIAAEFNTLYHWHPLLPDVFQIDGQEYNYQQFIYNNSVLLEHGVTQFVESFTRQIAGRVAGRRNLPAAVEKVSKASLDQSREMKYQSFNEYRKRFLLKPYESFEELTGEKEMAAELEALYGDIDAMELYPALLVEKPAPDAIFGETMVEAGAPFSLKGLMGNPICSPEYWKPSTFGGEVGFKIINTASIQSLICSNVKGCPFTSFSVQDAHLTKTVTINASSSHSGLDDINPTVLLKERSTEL
The experiment in a line: biochemical. The format is biochemical, sheep. The procedure:
The reaction is initiated by addition of arachidonic acid (100 mM) and terminated after 20 minutes incubation at 37° C. by addition of TCA.

For experiment [3], the target named is T3, Cyclooxygenase-1 (Ovis aries, UniProt P05979).
T3 construct: Cyclooxygenase-1 (from ram seminal vesicles); from tissue; host or cells: ram seminal vesicles; assay by Panlabs
T3 sequence (P05979 25-600): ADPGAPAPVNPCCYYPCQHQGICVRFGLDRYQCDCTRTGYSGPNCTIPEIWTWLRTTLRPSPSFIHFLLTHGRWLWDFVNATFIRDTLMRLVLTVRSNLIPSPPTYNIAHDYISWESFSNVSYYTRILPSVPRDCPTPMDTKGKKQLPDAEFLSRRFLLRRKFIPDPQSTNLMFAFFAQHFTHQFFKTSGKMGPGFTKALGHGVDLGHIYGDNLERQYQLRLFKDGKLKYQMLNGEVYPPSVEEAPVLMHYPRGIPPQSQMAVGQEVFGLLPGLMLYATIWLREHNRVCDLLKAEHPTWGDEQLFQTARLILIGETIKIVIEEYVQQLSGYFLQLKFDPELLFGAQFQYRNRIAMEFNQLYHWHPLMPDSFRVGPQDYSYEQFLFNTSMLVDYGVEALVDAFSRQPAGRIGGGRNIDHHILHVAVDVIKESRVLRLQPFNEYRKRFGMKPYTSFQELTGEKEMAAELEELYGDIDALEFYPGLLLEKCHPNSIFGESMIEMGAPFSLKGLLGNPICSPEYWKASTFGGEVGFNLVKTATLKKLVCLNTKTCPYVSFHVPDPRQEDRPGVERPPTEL
The experiment in a line: biochemical. The format is biochemical, ram. To be noted: for Cox1 activity: screened at 3×10^-4 M. The procedure: The reaction was initiated by addition of arachidonic acid (100 mM) and terminated after 20 minutes incubation at 37° C. by addition of trichloroacetic acid (TCA).

The subject of experiment [4] is smooth muscle. To be noted: cited from earlier work.
Experiment [5] addresses T4, rat prostatic androgen receptor (Rattus norvegicus, UniProt P15207).
T4 construct: the ventral prostates were rapidly removed and placed in ice-cold "homogenization buffer"; from tissue; host or cells: washed nuclear suspension of ventral prostate from testosterone-treated male rats (Harlan)
T4 sequence (P15207 1-902): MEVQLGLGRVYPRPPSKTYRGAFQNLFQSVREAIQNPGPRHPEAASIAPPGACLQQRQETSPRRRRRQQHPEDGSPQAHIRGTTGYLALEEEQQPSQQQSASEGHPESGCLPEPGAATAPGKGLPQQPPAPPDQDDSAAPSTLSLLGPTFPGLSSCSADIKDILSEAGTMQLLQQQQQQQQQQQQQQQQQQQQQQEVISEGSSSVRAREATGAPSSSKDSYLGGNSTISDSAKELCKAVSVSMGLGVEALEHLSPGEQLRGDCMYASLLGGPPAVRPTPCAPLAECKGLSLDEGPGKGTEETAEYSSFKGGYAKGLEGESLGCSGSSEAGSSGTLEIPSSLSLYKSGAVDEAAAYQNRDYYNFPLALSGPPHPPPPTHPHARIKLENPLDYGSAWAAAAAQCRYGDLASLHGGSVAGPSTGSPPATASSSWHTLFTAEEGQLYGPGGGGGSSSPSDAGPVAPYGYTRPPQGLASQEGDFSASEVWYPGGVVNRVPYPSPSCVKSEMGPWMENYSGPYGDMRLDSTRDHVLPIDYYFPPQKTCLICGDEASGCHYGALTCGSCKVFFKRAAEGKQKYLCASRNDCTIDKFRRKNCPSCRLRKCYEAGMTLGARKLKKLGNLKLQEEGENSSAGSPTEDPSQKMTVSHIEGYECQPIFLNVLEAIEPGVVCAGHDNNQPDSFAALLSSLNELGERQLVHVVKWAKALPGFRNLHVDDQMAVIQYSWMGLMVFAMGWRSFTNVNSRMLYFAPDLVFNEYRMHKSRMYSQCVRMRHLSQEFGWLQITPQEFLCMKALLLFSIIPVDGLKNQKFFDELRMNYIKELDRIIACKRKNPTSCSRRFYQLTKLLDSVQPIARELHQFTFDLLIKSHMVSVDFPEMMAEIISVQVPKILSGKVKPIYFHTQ
The experiment in a line: Rat prostatic nuclear androgen receptor binding assay against 3H-dihydrotestosterone. As to the method: Rats were fed with Purina chow and tap water, ad libitum.
General chemicals (reagent grade), free fatty acids, fatty acid ethyl esters and radioinert steroids were obtained from Sigma Chemical Company (St. Louis, Mo.). ^3 H-dihydrotestosterone (5α-androstan-17β-ol-3-one; 60 Ci/mmol) was purchased from NEN Life Science Products (Boston, Mass.). 100% ethanol was used throughout for the preparations of all inhibitors and radioinert chemicals.
The animals were treated intraperitoneally with testosterone (400 μg/100 g body wt). […] The homogenate was centrifuged at 800×g for 20 minutes at 4° C. […] The resuspended pellet was homogenized on ice using a glass Dounce homogenizer until suspension became uniform.
Non-specific binding was determined using radioinert dihydrotestosterone (10^-5 M) in place of the inhibitor. The test tubes were incubated for 20 hours at 15° C.
After an overnight incubation, 1 ml of ice-cold nuclear buffer was added followed by centrifugation at 800×g for 10 minutes at 4° C. The nuclear pellets were washed 3 times by resuspension in 1 ml of the same ice-cold nuclear buffer, with mixing and centrifugation as above. After discarding the final supernatant, 1 ml of 100% ethanol was added to each pellet and then vortexed. Test tubes were placed in a 30° C. water bath for 40 minutes, with vortexing every 10 minutes and a final centrifugation at 800 g for 10 minutes. The ethanol extracts were decanted into vials containing 4 ml of scintillation fluid (Ecoscint A), shaken and counted.
The results, expressed as percent inhibition of ^3 H-Dihydrotestosterone binding, at two concentrations of putative active components, of the rat prostatic androgen receptor assay are below.

Setting [6] is: Table 8, read-out: 5 Lipoxygenase IC50 (Table 8).
Where [7] appears, read: Table 8, read-out: Cyclooxygenase-2 IC50 (Table 8).
[8] abbreviates: Table 8, read-out: Cyclooxygenase-1 IC50 (Table 8).

Turning to `CCCCCCCCCCCCCC(=O)OCC` [Myristic Ester, ethyl myristate], in experiment [1], the 5-Lipo activity entry is on record as “Negative”. For the same compound, the Cox2 activity result in experiment [2] was “Negative”. Further, the Cox1 activity result in experiment [3] was “Negative”.
Consider `O=C1CCN(c2ccccc2)N1` [phenidone, reference compound], for which, in experiment [1] (reference compound, read-out: IC50, reference compounds, 5-lipoxygenase), the half-maximal inhibitory concentration (IC50) stood at 30 µM.
For the compound `CC/C=C\C/C=C\C/C=C\CCCCCCCC(=O)OCC` [Ethyl linolenate], the results for the IC50 in experiment [1] (setting [6]), in experiment [2] (setting [7]) and in experiment [3] (setting [8]) were above 30 µM, above 300 µM and above 300 µM, respectively. In experiment [1], the 5-Lipo activity entry is given as “Negative”. Moreover, in experiment [2], the Cox2 activity result is reported as “Negative”. The Cox1 activity result in experiment [3] is reported as “Negative”.
Take `CCCCCCCC/C=C\CCCCCCCC(=O)OCC` [Ethyl Oleate]: the IC50 in experiment [1] was above 30 µM; in experiment [2] it was above 300 µM; in experiment [3] (setting [8]) it was above 300 µM. Besides, the 5-Lipo activity result in experiment [1] is reported as “Negative”. The Cox2 activity result in experiment [2] is reported as “Negative”. For the same compound, the Cox1 activity result in experiment [3] was “Negative”.
`CC(C)NC[C@@H](O)COc1cccc2ccccc12` [R-propranolol]: the “effect on relaxant effect of Sabal extracts” value in experiment [4] was “inactive”.
With `CCCCCCCCCCCCCCCC(=O)OCC` [Ethyl Palmitate], the values for the IC50 in experiment [1] (setting [6]), in experiment [2] (setting [7]) and in experiment [3] (setting [8]) were above 30 µM, above 300 µM and above 300 µM, respectively. For the same compound, the 5-Lipo activity entry in experiment [1] was “Negative”. Also, in experiment [2], the Cox2 activity result was “Negative”. In addition, the Cox1 activity entry in experiment [3] is given as “Negative”.
Turning to `CCCCCCCCCCCCCC(=O)O` [Myristic Acid], the IC50 in experiment [1] is above 30 µM; in experiment [2] (setting [7]), above 300 µM; in experiment [3] (setting [8]), above 300 µM. In addition, the 5-Lipo activity result in experiment [1] was “Negative”. Also, the Cox2 activity entry in experiment [2] is “Negative”. In experiment [3], the Cox1 activity result is on record as “Negative”.
Consider `NCCCC(N)(C(=O)O)C(F)F` (centres unmarked) [a-difluoromethyl-ornithine], for which, in experiment [4], the “effect on relaxant effect of Sabal extracts” value was “not modified”.
For `C/C(=C\CO)CCC[C@H](C)CCC[C@H](C)CCCC(C)C` [Phytol], the “% Inh, individual experiment” value in experiment [5] (1.00E-04 M) was 87.0% and 64% and 97% and 8.0% and 31% and 29% and 33%; in experiment [5] (1.00E-05 M), 0.0% and 76% and 10% and 4.0% and 26% and 38% and 41%; in experiment [5] (1.00E-06 M) it was 82.0% and 88% and 81% and 31% and 25% and 3.0% and 7.0%; in experiment [5] (3.00E-05 M) it was 89.0% and 90% and 32% and 25% and 9.0% and 20% and 21%; in experiment [5] (3.00E-06 M), 65% and 0.0% and 9.0% and 73%; in experiment [5] (3.00E-07 M), 14.0% and 2.0% and 0.0%. Besides, the “% Inh, Mean” value is 32.0% in experiment [5] (1.00E-05 M, SE 10.1); 31.0% in experiment [5] (1.00E-06 M, SE 14.12); 28.5% in experiment [5] (3.00E-05 M, SE 12.8); 9.0% in experiment [5] (3.00E-06 M, SE 12.5); 2.0% in experiment [5] (3.00E-07 M, SE 4.3). The IC50 was 10 µM in experiment [5] (Table 4, marker compounds, read-out: Androgen Receptor IC50 (Table 4)) and 10 µM in experiment [5] (read-out: androgen receptor assay IC50). Besides, the inhibition at 10 µM in experiment [5] (at 10 μM) stood at 50%.
Turning to `CC[C@H](CC[C@@H](C)[C@H]1CC[C@H]2[C@@H]3CC=C4C[C@@H](O)CC[C@]4(C)[C@H]3CC[C@]12C)C(C)C` [β-sitosterol], the results for the half-maximal inhibitory concentration (IC50) in experiment [1], in experiment [2] and in experiment [3] were above 30 µM, above 300 µM and above 300 µM, respectively.
For `CCCCC/C=C\C/C=C\CCCCCCCC(=O)OCC` [Ethyl linoleate, ethyl linoleate], the IC50 in experiment [1] (setting [6]) was above 30 µM; in experiment [2] (setting [7]), above 300 µM; in experiment [3] (setting [8]) it was above 300 µM. Moreover, the 5-Lipo activity result in experiment [1] was “Negative”. For the same compound, the Cox2 activity entry in experiment [2] was “Negative”. For the same compound, the Cox1 activity entry in experiment [3] is “Negative”.
As to `CCCCCCCC/C=C\CCCCCCCC(=O)O` [Oleic Acid], the half-maximal inhibitory concentration (IC50) was above 30 µM in experiment [1] (setting [6]), above 300 µM in experiment [2] and above 300 µM in experiment [3] (setting [8]). Also, the 5-Lipo activity result in experiment [1] is on record as “Negative”. Moreover, the Cox2 activity result in experiment [2] was “Negative”. In experiment [3], the Cox1 activity result is recorded as “Negative”.
For the compound `CCCCCCCCCCCCCCCC(=O)O` [Palmitic Acid], the IC50 in experiment [1] (setting [6]) is above 30 µM; in experiment [2] (setting [7]), above 300 µM; in experiment [3] (setting [8]) it was above 300 µM. In experiment [1], the 5-Lipo activity result is recorded as “Negative”. In addition, in experiment [2], the Cox2 activity entry is “Negative”. Besides, the Cox1 activity entry in experiment [3] is given as “Negative”.

As usually defined, the IC50 is the concentration that inhibits the measured activity by half. One may read the inhibition as the drop in the measured response relative to a control, in per cent.
